The values below come from patent US20250084097A1, “MACROCYCLIC AMIDE COMPOUNDS AND APPLICATION THEREOF” (Medshine Discovery Inc., priority 2021, published 2025).

Like-named read-outs stand apart in the source and are kept apart here.

The test system of data set [1] is Ba/F3-FL-EGFR(L858R/T790M/C797S) phosphorylation. The data set is described as follows: Inhibition of EGFR phosphorylation in cells, Western Blot. The conditions noted are these: p-EGFR, 4 h incubation, read-out: Cell half-maximal inhibition concentration IC50 Ba/F3-FL-EGFR(L858R/T790M/C797S). It counts as cell-based. An excerpt:
(§1) Autophosphorylation of EGFR can activate its intracellular kinase pathway. In this assay, EGFR phosphorylation was quantified in order to detect the inhibitory effect of compounds on Ba/F3-FL-EGFR(L858R/T790M/C797S) and Ba/F3-FL-EGFR (del19-E746-A750/T790M/C797S) phosphorylation.
(§2) The cells in the logarithmic growth phase were taken and counted with a cell counter. The cell viability rate was required to be >90%. Cells were inoculated into a sterile 6-well plate with 2×10^6 cells per well, replenished with 1640 complete medium to 1998 μL, and the 6-well plate was incubated in a constant temperature incubator at 37° C. and 5% CO2.
(§3) The 6-well plate was taken out, and the cells were normal under microscope. In an ultra-clean bench, 2 μL of each of the prepared gradient diluted 1000× stock solution was added to the 6-well plate inoculated with cells, and the 6-well plate was gently shaken to distribute the compounds evenly.
(§4) The 6-well plate was incubated statically in a constant temperature incubator at 37° C., 5% CO2 for 4 h;
(§5) After the cells were cultured statically for 4 hours, the culture medium was collected, and centrifuged at 8000 rpm for 3 minutes. The cells were collected in a 1.5 mL EP tube. The supernatant was discarded, and the total protein was extracted;
(§6) Cells from each group were collected into 1.5 ml EP tubes and a certain volume of Lysis Buffer (RIPA:protease/phosphatase inhibitor=100:1) was added (˜66 μL per 2×10^6 cells, depending on the cell amount). After adding Lysis Buffer, the EP tubes were placed on ice quickly and vortexed using a vortexer to fully lyse the cells. Be careful not to vortex for too long, and quickly place the sample tube on ice to lysis, shaking every 10 min for three times. At the end of the lysis time, the EP tubes were centrifuged at 12000 rpm for 10 min in a pre-cooled centrifuge at 4° C. After centrifugation, the supernatant was transferred to new 1.5 ml EP tubes which were labeled.
(§7) Using the BCA Protein Concentration Assay Kit, protein quantification of the sample lysis supernatant was performed according to the kit instructions. After the protein concentration was determined, the lysis supernatant with the lowest concentration was used as the reference, and the rest of the lysis supernatants were diluted to that concentration using Lysis Buffer in a volume calculated according to the BCA standard curve. To the diluted lysis supernatant, the corresponding volume of 5× loading Buffer was added. The diluted solution was heated in a metal bath at 95° C. for 10 min, then placed on ice to be cooled, and stored in a refrigerator at −20° C.
(§8) The glass plates used for making glue were cleaned, and two glass plates were aligned the bottoms, put into the bracket, and fixed with clips. The separation gel according to the 10% separation gel formula was prepared, mixed well and then added to the glass plate. The addition was stopped until the separation gel reached about ¾ of the glass plate and the glue was pressed with 75% ethanol. After 90 minutes, the separation gel was solidified. The 75% ethanol was poured out. Filter paper was used to absorb the remaining ethanol solution on the glass plate. A 5% stacking gel was prepared, mixed evenly and added to the glass plate. Then a spiking comb was inserted. After 60 minutes, the glue was made.
(§9) The gel plate was fixed in an electrophoresis tank, and the inner tank was filled with 1× electrophoresis solution, while in the outer tank the electrophoresis solution was over the metal wire. The spiking comb was removed, the protein samples of Ba/F3-FL-EGFR (L858R/T790M/C797S) and Ba/F3-FL-EGFR (del19-E746-A750/T790M/C797S) cells were sampled 25 μg, and Protein Ladder was then added. Turning on the power supply, electrophoresis with a constant voltage of 70 V lasted for 30 min, electrophoresis was continued at constant voltage 86 V for 1 h 20 min until the bromophenol blue indicator band reached the bottom and electrophoresis was stopped. […]

Data set [2] has as its system Ba/F3-FL-EGFR (del19-E746-A750/T790M/C797S) phosphorylation. The description is as above. It counts as cell-based. The conditions noted are these: p-EGFR, 4 h incubation, read-out: Cell half-maximal inhibition concentration IC50 Ba/F3-FL-EGFR (del19-E746-A750/T790M/C797S).
From the text: as §1, §2, §3, §4, §5, §6, §7, §8, §9

The nature of data set [3]: Pharmacokinetic assay of compounds in mice. The conditions noted are these: for Vd / AUC(0-t) / half-life / C0 / bioavailability / Cmax / Tmax: male, ICR, mouse, plasma; for Vd: read-out: Apparent volume of distribution Vd; for AUC(0-t): read-out: Area under the curve AUC0-last; for half-life: read-out: Half-life T1/2 (converted); for C0: read-out: Starting concentration C0; for bioavailability: PO 10 mg/kg vs IV 3 mg/kg, read-out: Bioavailability F %; for Cmax: read-out: Peak concentration Cmax; for Tmax: read-out: Time to peak Tmax. It counts as in vivo, male ICR mice. An excerpt: Assay purpose: 7-9-week-old male ICR mice were used as test animals. LC/MS/MS method was used to determine the drug concentration of the compound in the plasma at different times after a single intravenous injection (IV) and oral administration (PO) of the compound, to study the pharmacokinetic behavior of the compounds of the present disclosure in mice, and to evaluate their pharmacokinetic characteristics.
Formulation of drug: The compounds were formulated as solutions in the respective solvents for administration in IV (intravenous injection) and PO (oral administration) groups. The dose of each compound was 3 mg/kg for IV and 10 mg/kg for PO, and the vehicle was 10% DMSO+10% solutol+80% (10% HP-β-CD).

As for `Cc1cc2cc(n1)-c1cnn(C)c1OCCC[C@@H](C)CN1/C(=N/C2=O)Nc2ccc(N=S(C)(C)=O)cc21` [WX-006], the IC50 in data set [1] came to 3.4 nM. The IC50 in data set [2] was 0.6 nM. In data set [3] (IV 3 mg/kg), the “Apparent clearance Cl” value was found to be 14.6 mL/min/kg, the Vd came out at 1.9 L/kg, the AUC(0-t) was found to be 6.54 µM·h and the half-life is 3.6 h. The C0 in data set [3] (IV 3 mg/kg) turned out to be 8.14 µM. In addition, the bioavailability – broadly, the share of a dose that reaches the circulation, judged against a reference dose that is usually intravenous – in data set [3] worked out at 83%. In addition, in data set [3] (PO 10 mg/kg), the AUC(0-t) came out at 18.1 µM·h, the Cmax amounted to 3.59 µM and the Tmax (usually the time at which the peak concentration occurs) amounted to 1.5 h.
On to `Cc1cc2cc(n1)-c1cnn(C)c1OCCC[C@@H](C)CN1/C(=N/C2=O)Nc2ccc(N=S3(=O)CCOCC3)cc21` [WX-013], for which, in data set [1], the IC50 was found to be 2.9 nM. Further, the IC50 in data set [2] was 1.3 nM. Further, in data set [3] (IV 3 mg/kg), the “Apparent clearance Cl” value was 4.7 mL/min/kg, the Vd worked out at 1 L/kg, the AUC(0-t) worked out at 18.9 µM·h and the half-life was 3.3 h. Moreover, the C0 in data set [3] (IV 3 mg/kg) worked out at 12.1 µM. Further, the bioavailability in data set [3] stood at 34%. Also, in data set [3] (PO 10 mg/kg), the AUC(0-t) was found to be 21.5 µM·h, the Cmax is 3.94 µM and the Tmax amounted to 1 h.
`Cc1cc2cc(n1)-c1cnn(C)c1OC[C@H]1CC[C@H](C1)CN1/C(=N/C2=O)Nc2ccc(N=S(C)(C)=O)cc21` (single isomer, unassigned) [WX-027A]: in data set [1], the IC50 is 2.1 nM. Further, the IC50 in data set [2] was 1.9 nM. For the same compound, in data set [3] (IV 3 mg/kg), the “Apparent clearance Cl” value was 14.2 mL/min/kg, the Vd was 1 L/kg, the AUC(0-t) was determined as 7.7 µM·h and the half-life was 1.1 h. Besides, in data set [3] (IV 3 mg/kg), the C0 was 6.85 µM. In data set [3], the bioavailability came to 64%. For the same compound, in data set [3] (PO 10 mg/kg), the AUC(0-t) turned out to be 15.7 µM·h, the Cmax amounted to 5.91 µM and the Tmax was determined as 0.8 h.
For `Cc1cc2cc(n1)-c1cnn(C)c1OCCC[C@@H](C)CN1/C(=N/C2=O)Nc2ccc(N=S(C)(C)=O)c(Cl)c21` [WX-019], in data set [3] (IV 3 mg/kg), the “Apparent clearance Cl” value amounted to 8.6 mL/min/kg, the Vd was 1.6 L/kg, the AUC(0-t) was 10.6 µM·h and the half-life was 2.5 h. Besides, the C0 in data set [3] (IV 3 mg/kg) stood at 5.73 µM. Besides, the bioavailability in data set [3] stood at 65%. In addition, in data set [3] (PO 10 mg/kg), the AUC(0-t) is 23.2 µM·h, the Cmax turned out to be 3.92 µM and the Tmax was 1 h.
Consider `Cc1cc2cc(n1)-c1cnn(C)c1OCCC[C@@H](C)CN1/C(=N/C2=O)Nc2ccc(N=S3(=O)CCCC3)cc21` [WX-010 (trifluoroacetate)], for which the IC50 in data set [1] was found to be 2.3 nM. Also, in data set [2], the IC50 stood at 0.8 nM. Besides, in data set [3] (IV 3 mg/kg), the “Apparent clearance Cl” value was 5.7 mL/min/kg, the Vd amounted to 1 L/kg, the AUC(0-t) is 16.1 µM·h and the half-life was 2.8 h. Besides, the C0 in data set [3] (IV 3 mg/kg) is 8.14 µM. Further, the bioavailability in data set [3] is 56%. Besides, in data set [3] (PO 10 mg/kg), the AUC(0-t) was 30.1 µM·h, the Cmax came out at 4.49 µM and the Tmax amounted to 1 h.
